What all share (type): cell-based
In one test the target is T1, rTRPM8 (Rattus norvegicus, UniProt Q8R455).
T1 construct: expressed in transfected cells
The experiment in a line: Ca2+ microfluorography assay, HEK293 cells expressing rTRPM8, menthol activation. How it is done: This represents a similar activity as β–lactam 2 and a somewhat higher potency than the model TRPM8 antagonists AMTB.
To measure the effect of the compounds against TRPM8 activity we used microfluorometry-based calcium flux assays with Fluo-4 NW Ca^2+ dye and fluorescence as described in [30]. Briefly, human embryonic kidney cell line (HEK293) cells stably transfected with rTRPM8 or hTRPM8 were seeded in 96-well plates at a cell density of 30,000 cells. After 2 days the medium was replaced with 100 μL of the dye, Fluo-4 NW, loading solution supplemented with probenecid 2.5 mM and incubated 1 h at 37 °C. The TRPM8 activity was measured using POLASTAR plate reader (BMG Labtech) setting the excitation wavelength at 485 nm and the emission wavelength at 520 nm. The baseline fluorescence was recorded for 3 cycles before the addition of vehicle compound at different concentrations and the antagonist, 10 μM AMTB. Fluorescence intensity was recorded during 7 more cycles and 100 μM menthol was added. Fluorescence intensity was recorded during 10 more cycles.
Data analysis: The Z-factor was calculated in each assay using the following equation: […]. In all the experiments, the Z-factor was ≥0.5. The effect of the compounds against TRPM8 activity was determined by normalizing their effect on the maximum fluorescence observed after application of 100 μM menthol. Decrease in menthol signal was expressed as percentage of inhibition (%). All data are expressed as the mean ± standard deviation (SD). Data are expressed as the concentration exerting a half-maximal inhibition of agonist-induced [Ca^2+]i elevation (IC50), which was calculated again using GraphPad Prism® software. All determinations were performed in triplicate (n = 3) in 3 independent experiments (N = 3).

The subject of test [1] is voltage-activated Na+ and K+ currents. The experiment in a line: Whole-cell voltage-clamp, voltage-activated currents in rat DRG neurons. The following applies: 1 µM, depolarization pulse to +10 mV. As for the experimental part:
(§1) We also investigated the effect of RGM8-51 on native TRPM8 channels from rat DRG neurons. Whole-cell patch-clamp recordings from small size DRG neurons evidenced menthol (100 µM)-activated inward currents at a holding voltage of −80 mV (Figure 3A). As expected from results obtained in rTRPM8-expressing HEK293 cells, RGM8-51 (1 µM) inhibited menthol-activated currents.
Voltage-activated Na^+ and K^+ currents and TRPM8-mediated currents were recorded in DRG neurons isolated from 6-8 weeks old Sprague-Dawley rats, as previously described. Rats were sacrificed by cervical dislocation followed by decapitation and lumbar segments of the spinal column were removed and placed in a cold Ca^2+, Mg^2+-free Hank’s solution (Sigma-Aldrich, Madrid, Spain). The bone surrounding the spinal cord was removed and the right L4, L5 and L6 DRG were exposed and pulled out. […]
(§2) Data were sampled at 10 kHz (EPC10 amplifier with PatchMaster 2.53 software, HEKA Electronics, Lambrecht, Germany) and low-pass filtered at 3 kHz for analysis (PatchMaster 2.53 and GraphPad Prism 6.0, Graphpad Software, San Diego, CA, USA). […] Cell capacitance was measured and used to estimate the current density (J, pA/pF).

The target in test [2] is T2, native TRPM8 channels from rat DRG neurons (Rattus norvegicus, UniProt Q8R455).
T2 construct: native TRPM8 channels from rat DRG neurons; endogenous in cells; host or cells: primary DRG neurons (L4-L6) from 6-8 weeks old Sprague-Dawley rats
The experiment in a line: Whole-cell voltage-clamp, menthol-activated currents in rat DRG neurons. As for the experimental part:
as §1
Voltage-activated Na^+ and K^+ currents and TRPM8-mediated currents were recorded in DRG neurons isolated from 6-8 weeks old Sprague-Dawley rats, as previously described. Rats were sacrificed by cervical dislocation followed by decapitation and lumbar segments of the spinal column were removed and placed in a cold Ca^2+, Mg^2+-free Hank’s solution (Sigma-Aldrich, Madrid, Spain). The bone surrounding the spinal cord was removed and the right L4, L5 and L6 DRG were exposed and pulled out. After removing the roots, DRG were chopped in half and incubated for 30 min at 37°C in Dulbecco’s modified Eagle’s Medium-low glucose (DMEM; Sigma-Aldrich) containing 5 mg/mL collagenase XI (Sigma-Aldrich, Madrid, Spain), 100 U/mL penicillin (Sigma-Aldrich), and 0.1 mg/mL streptomycin (Sigma-Aldrich). Then, the cell suspension was washed with DMEM by centrifugation (300 G, 5 min at 4 °C), filtered through a 100 µm mesh to eliminate cell clumps and washed again by centrifugation. […]
as §2
Data analysis: For the whole-cell patch-clamp experiments, results are expressed as the percentage of remaining activation of the TRPM8 channel. This is calculated by normalizing the ratio (p2/p1) of testing conditions to the ratio (p2/p1) of the control condition. […]

T2 sequence (Q8R455 whole entry): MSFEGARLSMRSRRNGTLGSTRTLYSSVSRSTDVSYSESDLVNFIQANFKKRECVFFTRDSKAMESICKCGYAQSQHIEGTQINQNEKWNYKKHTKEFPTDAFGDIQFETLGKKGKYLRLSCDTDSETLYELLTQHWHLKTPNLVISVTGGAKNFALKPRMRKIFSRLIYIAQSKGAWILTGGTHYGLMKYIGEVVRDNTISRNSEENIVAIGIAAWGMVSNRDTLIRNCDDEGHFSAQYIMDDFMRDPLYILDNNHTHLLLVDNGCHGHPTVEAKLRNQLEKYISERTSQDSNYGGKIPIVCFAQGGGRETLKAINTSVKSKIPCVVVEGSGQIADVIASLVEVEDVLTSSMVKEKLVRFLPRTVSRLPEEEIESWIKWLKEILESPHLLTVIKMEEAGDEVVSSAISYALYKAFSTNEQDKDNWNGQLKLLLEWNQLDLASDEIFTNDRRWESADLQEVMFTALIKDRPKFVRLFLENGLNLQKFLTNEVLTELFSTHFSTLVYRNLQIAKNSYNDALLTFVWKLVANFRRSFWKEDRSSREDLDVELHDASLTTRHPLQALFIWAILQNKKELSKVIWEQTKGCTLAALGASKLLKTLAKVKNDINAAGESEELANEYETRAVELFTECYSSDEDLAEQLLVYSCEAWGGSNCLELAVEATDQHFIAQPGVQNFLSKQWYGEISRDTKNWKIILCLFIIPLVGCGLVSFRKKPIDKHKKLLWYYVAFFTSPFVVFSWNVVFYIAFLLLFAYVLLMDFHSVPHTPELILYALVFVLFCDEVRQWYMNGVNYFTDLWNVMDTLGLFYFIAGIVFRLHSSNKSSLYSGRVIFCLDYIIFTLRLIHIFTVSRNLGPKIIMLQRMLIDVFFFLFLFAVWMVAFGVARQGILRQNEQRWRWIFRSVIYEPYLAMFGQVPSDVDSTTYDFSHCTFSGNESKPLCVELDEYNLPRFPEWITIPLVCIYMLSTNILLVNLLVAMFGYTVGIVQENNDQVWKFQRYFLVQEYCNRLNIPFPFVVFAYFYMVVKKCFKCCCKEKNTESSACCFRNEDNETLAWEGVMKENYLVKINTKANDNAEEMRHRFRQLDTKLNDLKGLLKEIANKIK
T1 sequence (Q8R455 whole entry): as above

The compound `C[C@@H]1C(=O)N(C[C@H](Cc2ccccc2)N(Cc2ccccc2)Cc2ccccc2)[C@]1(Cc1ccccc1)C(=O)OC(C)(C)C` [RGM8-51, 4(S)-Benzyl-3S-methyl-4-(tert-butoxy)carbonyl-1-[(2′S-dibenzylamino-3′-phenyl)prop-1′-yl]-2-oxoazetidine] had an IC50 at rTRPM8 (HEK293-rTRPM8, 100 μM menthol) of 1060 ± 1210 nM. In addition, the “ability to activate TRPM8 channels (agonist activity)” value on rTRPM8 (HEK293 cells expressing rat or human TRPM8) is given as “did not have any ability to activate TRPM8 channels”. The “effect on voltage-activated Na+ and K+ currents” value in test [1] is on record as “had no effect”. Moreover, the “peak current density of menthol-activated current after compound” value in test [2] (1 µM, menthol 100 µM, holding −80 mV) was 0.51 ± 0.09 pA/pF. Further, in test [2] (DRG neuron, 1 µM, menthol 100 µM, holding −80 mV, n = 8 cells, read-out: Mean peak current inhibition of menthol-activated currents), the inhibition at 1 µM turned out to be 65 ± 4.67%. Besides, the “effect on baseline current at -80 mV” value in test [2] (compound on its own) is listed as “did not modify on its own the baseline current”.

For orientation: IC50 means the concentration at which inhibition is half-maximal. A high value points to lower potency. A word on the inhibition: it is the relative decrease from the control value, in per cent.

Source of the values: PMC8910920 (International Journal of Molecular Sciences, 2022).
